The values that follow come from PubChem BioAssay (NCI).

Common to all, as to assay: NCI anticancer screen, dose series, 48 h
The test system of experiment [1] is M14 melanoma.
Experiment [2] relates to HT29 colon.
Experiment [3] has as its system K-562 leukemia.
Experiment [4] deals with OVCAR-4 ovarian.
For experiment [5], the system named is SNB-19 CNS.
The subject of experiment [6] is ACHN renal.
For experiment [7], the system named is HCT-15 colon.
Experiment [8] has as its system RPMI-8226 leukemia.
Experiment [9] has as its system U251 CNS.
Experiment [10] concerns TK-10 renal.

Where “and” joins values, the source holds several entries; their conditions need not be identical. Identical values can stand only once.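 A five-concentration, 48-hour dose response in 96-well plates underlies each endpoint, interpolated linearly between surrounding concentrations. At the GI50, growth is halved. TGI: concentration producing complete growth inhibition.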 Where a SMILES comes first, the peptide text is derived from it. [ ]: non-standard residue; d: D form. The star is where a group is joined. ξ: configuration not given here. NMeN = CN[C@@H](CC(N)=O)C(=O)O; NMeV = CN[C@H](C(=O)O)C(C)C; ξNMeV = CNC(C(=O)O)C(C)C; Boc = CC(C)(C)OC(=O)*; ξNMeA = CNC(C)C(=O)O

Regarding `COC(=O)C(C)N(C)C(=O)[C@H](CC(N)=O)N(C)C(=O)[C@@H]1CCCN1C(=O)[C@H](C(C)C)N(C)C(=O)C(C(C)C)N(C)C(=O)[C@@H](NC(=O)OC(C)(C)C)C(C)C` (stereo not given in full) (Boc-V[ξNMeV][NMeV]P[NMeN][ξNMeA]-OMe), the GI50 in experiment [1], in experiment [2], in experiment [3], in [5], in experiment [6] and in experiment [9] was above 100 µM throughout. Besides, the GI50 in experiment [10] is above 100 µM. Moreover, the TGI in experiment [1] is above 100 µM; in [2], above 100 µM; in [3] it was 50 µM and > 100 µM; in experiment [4], above 100 µM; in [5], above 100 µM; in experiment [6], above 100 µM. Besides, the TGI in experiment [7], in experiment [8], in experiment [9] and in experiment [10] was above 100 µM in each case.
With `Cc1cccc(Cl)c1NC(=O)/C=C/c1ccccc1`, the TGI is above 100 µM in experiment [1]; above 100 µM in [2]; above 100 µM in [3]; 70.1 µM in experiment [4]; above 100 µM in [5]; above 100 µM in experiment [6]. For the same compound, the TGI in [7], in [8], in experiment [9] and in experiment [10] was above 100 µM throughout.
On to `Cc1cc(-c2nnc(N)nc2-c2ccc(F)cc2)cc(Cl)n1`, for which the GI50 in experiment [1] is above 100 µM; in [2], above 100 µM; in experiment [3], 59 µM; in [4], 97.3 µM; in [5], above 100 µM; in experiment [6], 73.3 µM. In addition, the GI50 in experiment [7] was above 100 µM; in experiment [8], 37.3 µM; in experiment [9] it was above 100 µM; in experiment [10], 42.6 µM. In addition, the TGI in experiment [1], in experiment [2], in [3], in [4], in [5] and in experiment [6] was above 100 µM in each case. Further, the TGI in experiment [7], in experiment [8], in experiment [9] and in [10] was above 100 µM throughout.
On to `COc1ccc2c(c1)OC1=C(C(=O)OC1)C2c1cc(OC)c(OC)c(OC)c1` (stereo not given), for which the GI50 in [1] is 0.471 µM; in experiment [2] it was 0.345 µM; in experiment [3] it was 0.199 µM; in experiment [4] it was 1.42 µM; in experiment [5] it was 0.58 µM; in [6] it was 1.27 µM. The GI50 in experiment [7] is 0.499 µM; in experiment [8], 0.514 µM; in experiment [9], 0.456 µM; in experiment [10], above 67.7 µM. Further, the TGI in experiment [1], in experiment [2], in experiment [3], in experiment [4], in experiment [5] and in [6] was above 100 µM in each case. Moreover, the TGI in experiment [7], in experiment [8], in experiment [9] and in [10] was above 100 µM each time.
For the compound `CCCCCCCCCCC(O)C1CCC(C(O)CCC(O)C2CCC(CCCCCCC[C@H](O)CC3=C[C@@H](C)OC3=O)O2)O1` (stereo not given in full), the TGI in experiment [1] was above 100 µM; in experiment [2] it was above 100 µM; in experiment [3], above 100 µM; in experiment [4], above 100 µM; in experiment [5] it was above 88.3 µM; in experiment [6] it was above 100 µM. Besides, the TGI in experiment [7], in [8], in experiment [9] and in experiment [10] was above 100 µM throughout. Also, the results for the GI50 in [3], in experiment [6] and in experiment [8] were 2.18 µM, above 100 µM and 6.36 µM, respectively.
On to `C=CCN(CC=C)C(=O)c1cc(C)nc2c1c(=O)n(-c1ccccc1)c(=O)n2CC(O)CN1CCN(c2ncccn2)CC1` (stereo not given), for which the GI50 in experiment [1] is above 100 µM; in experiment [2] it was above 100 µM; in [3] it was above 100 µM; in experiment [4] it was 80.3 µM; in experiment [5], above 100 µM; in experiment [6], above 100 µM. The GI50 in [7], in experiment [8], in experiment [9] and in [10] was above 100 µM each time. In addition, the TGI in experiment [1], in experiment [2], in experiment [3], in experiment [4], in experiment [5] and in experiment [6] was above 100 µM each time. Besides, the TGI in [7], in experiment [8], in [9] and in experiment [10] was above 100 µM each time.
As to `C=CCC(C(=O)O)c1ccccc1` (stereo not given), the TGI in experiment [1], in experiment [2], in experiment [3], in [4], in experiment [5] and in experiment [6] was above 100 µM throughout. Besides, the TGI in experiment [7], in experiment [8], in experiment [9] and in experiment [10] was above 100 µM in each case.
On to `COC1OC(C)C(O)CC1OS(=O)(=O)c1ccc(C)cc1` (stereo not given), for which the TGI in experiment [1], in experiment [2], in experiment [3], in experiment [4], in experiment [5] and in experiment [6] was above 100 µM throughout. Also, the TGI in [7], in [8], in experiment [9] and in [10] was above 100 µM throughout.
As to `O=CN1N=C(c2ccc(Cl)cc2)CC1c1cccc(Nc2ccnc3cc(Cl)ccc23)c1` (stereo not given), the GI50 in [1] is 1.55 µM; in experiment [2], 1.28 µM; in experiment [3], 0.388 µM; in [4], 0.638 µM; in experiment [5] it was 4.19 µM; in [6], 2.64 µM. The GI50 in [7] is 1.36 µM; in experiment [8] it was 0.611 µM; in experiment [9], 2.47 µM; in experiment [10] it was 2.34 µM. Besides, the TGI was 13.5 µM in experiment [1]; 7.61 µM in experiment [2]; 10.2 µM in experiment [3]; 16.7 µM in experiment [4]; above 100 µM in experiment [5]; above 100 µM in experiment [6]. Further, the TGI in [7] is above 100 µM; in experiment [8], 4.19 µM; in experiment [9] it was 13.6 µM; in experiment [10], 21.1 µM.
Consider `Cc1ccc(-c2nc(N)nc3c2nnn3Cc2cccc(CO[C@H]3CCOC3)n2)o1`, for which the GI50 in experiment [1] is above 100 µM; in [2], above 100 µM; in [3] it was above 100 µM; in experiment [4], 66.5 µM; in [5], above 100 µM; in [6], above 100 µM. The GI50 in experiment [7], in experiment [8], in [9] and in experiment [10] was above 100 µM throughout. The TGI in experiment [1], in experiment [2], in experiment [3], in experiment [4], in experiment [5] and in experiment [6] was above 100 µM throughout. Further, the TGI in experiment [7], in experiment [8], in [9] and in experiment [10] was above 100 µM in each case.
`COc1cc(C(c2cc3c(cc2O)OCO3)N2CCCCC2)cc(OC)c1OC` (stereo not given): the TGI in experiment [1] is 18.5 µM; in experiment [2] it was 33.3 µM; in experiment [3], above 21.3 µM; in experiment [4], 25.2 µM; in experiment [5], 46.9 µM; in experiment [6], 31.1 µM. The TGI in experiment [7] is 30.8 µM; in [8], above 26.9 µM; in [9], 30.2 µM; in experiment [10], 31.2 µM.
For `CCN(CC)CCNC(=O)c1nn(C)c(=S)[nH]c1=S`, the TGI in experiment [1], in experiment [2], in experiment [3], in [4], in experiment [5] and in experiment [6] was above 100 µM throughout. The TGI in experiment [7], in [8], in experiment [9] and in experiment [10] was above 100 µM throughout.
On to `CC(=O)N/C(=C\c1cccc([N+](=O)[O-])c1)c1nc2c3c(ccc2[nH]1)C(=O)c1ccccc1C3=O`, for which the TGI in experiment [1] is above 100 µM; in experiment [2], above 100 µM; in [3] it was above 100 µM; in [4], above 100 µM; in experiment [5] it was above 100 µM; in experiment [6] it was 47.9 µM. Further, the TGI in [7], in experiment [8], in experiment [9] and in experiment [10] was above 100 µM in each case.
Regarding `Nc1nc(=S)[nH]c(C(=O)Nc2ccc(Cl)c(Cl)c2)c1-c1ccc(Cl)cc1`, the TGI in experiment [1], in experiment [2], in experiment [3], in [4], in experiment [5] and in [6] was above 100 µM throughout. In addition, the TGI in experiment [7], in experiment [8], in [9] and in [10] was above 100 µM throughout.
